According to patent US20250206738A1, “WRN INHIBITORS” (Nimbus Wadjet, Inc., priority 2023, published 2025):

How the values were obtained:
[1] = tested on: p21 induction in HCT 116 cells; assay: p21 induction in cells (In-Cell Western, p21/GAPDH ratio); type: cell-based; conditions: Homo sapiens, HCT-116, 24 h, 24 h compound incubation, read-out: P21_EC50
Outline: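 p21 and GAPDH signals quantified by In-Cell Western after 24 h compound exposure of HCT 116 cells (11 concentrations, 2-fold steps, usual top 10 μM). Percent activation from p21/GAPDH ratio relative to DMSO (low) and internal WRN inhibitor (high) controls; curve fit gave EC50.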

[2] = target: T1, human Werner helicase (WRN, Uniprot Q14191, amino acids 517-1235 with L1074F point mutation; WRN-BV08) (Homo sapiens, UniProt Q14191, L1074F); assay: WRN (BV08) ADP-Glo assay; type: biochemical; conditions: WRN-BV08 (aa 517-1235, L1074F); read-out: ADP-Glo_hWRN_IC50
T1 construct: Uniprot Q14191, amino acids 517-1235 with L1074F point mutation; 8xHis (C, cleaved yes); TEV cleavage site (ENLYFQG) (C, cleaved yes); made in house; host or cells: Sf9 insect cells (baculovirus, pFastBac)
T1 sequence (Q14191 with tags, fused parts or gaps L1074F): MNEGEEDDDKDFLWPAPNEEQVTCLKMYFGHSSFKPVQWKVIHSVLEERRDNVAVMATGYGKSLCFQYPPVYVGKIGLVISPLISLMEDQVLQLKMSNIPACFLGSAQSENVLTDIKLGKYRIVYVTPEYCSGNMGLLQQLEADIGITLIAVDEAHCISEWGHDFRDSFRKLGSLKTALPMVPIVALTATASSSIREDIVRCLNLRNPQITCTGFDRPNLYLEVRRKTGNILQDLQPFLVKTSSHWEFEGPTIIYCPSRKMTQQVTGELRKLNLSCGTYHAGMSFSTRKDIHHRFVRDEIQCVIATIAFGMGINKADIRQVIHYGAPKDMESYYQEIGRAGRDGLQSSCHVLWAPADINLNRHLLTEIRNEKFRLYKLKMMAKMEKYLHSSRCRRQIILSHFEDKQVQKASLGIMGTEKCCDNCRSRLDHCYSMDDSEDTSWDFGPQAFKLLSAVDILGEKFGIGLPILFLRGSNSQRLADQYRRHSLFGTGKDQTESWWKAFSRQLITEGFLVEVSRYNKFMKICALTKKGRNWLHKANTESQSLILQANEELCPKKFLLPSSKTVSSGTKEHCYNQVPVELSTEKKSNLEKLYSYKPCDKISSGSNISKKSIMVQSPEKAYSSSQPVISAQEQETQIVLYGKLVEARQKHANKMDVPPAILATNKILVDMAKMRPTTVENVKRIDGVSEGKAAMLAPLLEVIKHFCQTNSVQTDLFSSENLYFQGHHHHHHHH
Outline: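 ADP formed by untagged WRN helicase fragment (aa 517-1235, L1074F; 0.15 nM final) on 0.1 nM DNA duplex with […], 60 min at 25 °C after 15 min compound preincubation, pH 7.5 Bicine buffer. Luminescent ADP-Glo readout; IC50 from 4-parameter fit of % inhibition.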

| SMILES | EC50 [1] [nM] | IC50 [2] [nM] |
| --- | --- | --- |
| CCc1c([C@@]23CCN(C(=O)c4ncnc(C)c4O)C[C@@H]2C3)c(=O)c2nn(-c3ccnc(OC)c3)nc2n1CC(=O)NC12CC(C(C)C)(C1)C2 (relative stereo) [I-63, rel-2-{5-ethyl-6-[(1R,6S)-3-(5-hydroxy-6-methylpyrimidine-4-carbonyl)-3-azabicyclo[4.1.0]heptan-6-yl]-2-(2-methoxypyridin-4-yl)-7-oxo-2H,4H,7H-[1,2,3]triazolo[4,5-b]pyridin-4-yl}-N-[3-(propan-2-yl)bicyclo[1.1.1]pentan-1-yl]acetamide] | 500 to 2000 | 5 to 50 |
| CCc1c(N2CCN(C(=O)c3c(O)ccc4ncoc34)CC2)c(=O)n2nc(-c3ccnc(OC)c3)nc2n1CCNC(=O)C12CC(C(F)(F)F)(C1)C2 [I-34, N-(2-(5-ethyl-6-(4-(6-hydroxybenzo[d]oxazole-7-carbonyl)piperazin-1-yl)-2-(2-methoxypyridin-4-yl)-7-oxo-[1,2,4]triazolo[1,5-a]pyrimidin-4(7H)-yl)ethyl)-3-(trifluoromethyl)bicyclo[1.1.1]pentyl-1-carboxamide] | > 5000 | > 500 |
| CCc1c(N2CCN(C(=O)c3ncnc(C)c3O)CC2)c(=O)n2nc(N(C)C)nc2n1CC(=O)NC12CC(C(F)(F)F)(C1)C2 [I-33, 2-(2-(dimethylamino)-5-ethyl-6-(4-(5-hydroxy-6-methylpyrimidine-4-carbonyl)piperazin-1-yl)-7-oxo-[1,2,4]triazolo[1,5-a]pyrimidin-4(7H)-yl)-N-(3-(trifluoromethyl)bicyclo[1.1.1]pentan-1-yl)acetamide] | > 5000 | 100 to 500 |
| CCc1c(N2CCN(C(=O)c3ncc4c(c3O)CCO4)CC2)c(=O)n2nc(C3=CCOCC3)nc2n1CC(=O)NC12CC(C3CC3)(C1)C2 [I-9, N-(3-cyclopropylbicyclo[1.1.1]pentan-1-yl)-2-(2-(3,6-dihydro-2H-pyran-4-yl)-5-ethyl-6-(4-(4-hydroxy-2,3-dihydrofuro[2,3-c]pyridine-5-carbonyl)piperazin-1-yl)-7-oxo-[1,2,4]triazolo[1,5-a]pyrimidin-4(7H)-yl)acetamide] | 500 to 2000 | 5 to 50 |
| CCc1c(N2CCN(C(=O)c3ncnc(C)c3O)CC2)c(=O)c2nc(N(C)C)cnc2n1CC(=O)NC12CC(C(F)(F)F)(C1)C2 [I-1, 2-(2-(dimethylamino)-6-ethyl-7-(4-(5-hydroxy-6-methylpyrimidine-4-carbonyl)piperazin-1-yl)-8-oxopyrido[2,3-b]pyrazin-5(8H)-yl)-N-(3-(trifluoromethyl)bicyclo[1.1.1]pentan-1-yl)acetamide] | > 5000 | 100 to 500 |
| CCc1c(N2CCN(C(=O)c3c(OC)ncc(C)c3O)CC2)c(=O)n2nc(-c3ccnc(OC)c3)nc2n1CC(=O)NC12CC(C3CC3)(C1)C2 [I-39, N-(3-cyclopropylbicyclo[1.1.1]pentan-1-yl)-2-(5-ethyl-6-(4-(4-hydroxy-2-methoxy-5-methylnicotinoyl)piperazin-1-yl)-2-(2-methoxypyridin-4-yl)-7-oxo-[1,2,4]triazolo[1,5-a]pyrimidin-4(7H)-yl)acetamide] | ≤ 500 | 5 to 50 |
| CCc1c(N2CCN(C(=O)c3c(OC)ncc(C4CCOC4)c3O)CC2)c(=O)c2nn(-c3ccnc(OC)c3)nc2n1CC(=O)NC12CC(C(C)C)(C1)C2 (single isomer, unassigned) [I-64] | 500 to 2000 | 5 to 50 |
| CCc1c(N2CCN(C(=O)c3ncnc(C)c3O)CC2)c(=O)c2nc(-c3ccnc(OC)c3)oc2n1CC(=O)NC12CC(C(F)(F)F)(C1)C2 [I-16, 2-(5-ethyl-6-(4-(5-hydroxy-6-methylpyrimidine-4-carbonyl)piperazin-1-yl)-2-(2-methoxypyridin-4-yl)-7-oxooxazolo[5,4-b]pyridin-4(7H)-yl)-N-(3-(trifluoromethyl)bicyclo[1.1.1]pentan-1-yl)acetamide] | > 5000 | 5 to 50 |

Further lines, results first:

| EC50 [1] [nM] | IC50 [2] [nM] | SMILES |
| --- | --- | --- |
| > 5000 | 5 to 50 | CCc1c(N2CCN(C(=O)c3ncccc3C(=O)O)CC2)c(=O)c2nn(-c3ccnc(OC)c3)nc2n1CC(=O)NC12CC(C3CC3)(C1)C2 [I-216, 2-(4-(4-(2-((3-cyclopropylbicyclo[1.1.1]pentan-1-yl)amino)-2-oxoethyl)-5-ethyl-2-(2-methoxypyridin-4-yl)-7-oxo-4,7-dihydro-2H-[1,2,3]triazolo[4,5-b]pyridin-6-yl)piperazine-1-carbonyl)nicotinic acid] |
| ≤ 500 | 5 to 50 | CCc1c(N2CCN(C(=O)c3ncnc(C)c3O)[C@H]3CC[C@@H]32)c(=O)c2nc(N(C)C)cnc2n1CC(=O)NC12CC(C3CCC3)(C1)C2 [I-226, N-(3-cyclobutylbicyclo[1.1.1]pentan-1-yl)-2-(2-(dimethylamino)-6-ethyl-7-((1S,6S)-5-(5-hydroxy-6-methylpyrimidine-4-carbonyl)-2,5-diazabicyclo[4.2.0]octan-2-yl)-8-oxopyrido[2,3-b]pyrazin-5(8H)-yl)acetamide] |
| > 5000 | 100 to 500 | CCc1c(N2CCN(C(=O)c3cnn(C)c3)CC2)c(=O)n2nc(-c3ccnc(OC)c3)nc2n1CC(=O)NC1(C(O)c2ccccc2)CC1 (centres unmarked) [I-250, 2-(5-ethyl-2-(2-methoxypyridin-4-yl)-6-(4-(1-methyl-1H-pyrazole-4-carbonyl)piperazin-1-yl)-7-oxo-[1,2,4]triazolo[1,5-a]pyrimidin-4(7H)-yl)-N-(1-(hydroxy(phenyl)methyl)cyclopropyl)acetamide] |
| ≤ 500 | 5 to 50 | CCc1c(N2CCN(C(=O)c3c(O)ccc4ncoc34)CC2)c(=O)n2nc(N(C)C)nc2n1CC(=O)NC12CC(C3CCC3)(C1)C2 [I-203, N-(3-cyclobutylbicyclo[1.1.1]pentan-1-yl)-2-(2-(dimethylamino)-5-ethyl-6-(4-(6-hydroxybenzo[d]oxazole-7-carbonyl)piperazin-1-yl)-7-oxo-[1,2,4]triazolo[1,5-a]pyrimidin-4(7H)-yl)acetamide] |
| 2000 to 5000 | 5 to 50 | CCc1c(N2CCN(C(=O)c3cc(C(C)(C)O)cnc3OC)[C@H]3CC[C@@H]32)c(=O)c2nn(C3=CCOCC3)nc2n1CC(=O)NC12CC(C3CC3)(C1)C2 [I-221, N-(3-cyclopropylbicyclo[1.1.1]pentan-1-yl)-2-(2-(3,6-dihydro-2H-pyran-4-yl)-5-ethyl-6-((1S,6S)-5-(5-(2-hydroxypropan-2-yl)-2-methoxynicotinoyl)-2,5-diazabicyclo[4.2.0]octan-2-yl)-7-oxo-2,7-dihydro-4H-[1,2,3]triazolo[4,5-b]pyridin-4-yl)acetamide] |
| > 5000 | 100 to 500 | CCc1c(N2CCN(C(=O)c3cnn(C)c3)CC2)c(=O)n2nc(-c3ccnc(OC)c3)nc2n1CC(=O)NC1CC2(C1)CC2F (centres unmarked) [I-247, 2-(5-ethyl-2-(2-methoxypyridin-4-yl)-6-(4-(1-methyl-1H-pyrazole-4-carbonyl)piperazin-1-yl)-7-oxo-[1,2,4]triazolo[1,5-a]pyrimidin-4(7H)-yl)-N-(1-fluorospiro[2.3]hexan-5-yl)acetamide] |
| 500 to 2000 | 5 to 50 | CCc1c(N2CCN(C(=O)c3ncnc(C)c3O)CC2)c(=O)n2nc(C3=CCOCC3)nc2n1CC(=O)NC12CC(C(C)C)(C1)C2 [I-234, 2-(2-(3,6-dihydro-2H-pyran-4-yl)-5-ethyl-6-(4-(5-hydroxy-6-methylpyrimidine-4-carbonyl)piperazin-1-yl)-7-oxo-[1,2,4]triazolo[1,5-a]pyrimidin-4(7H)-yl)-N-(3-isopropylbicyclo[1.1.1]pentan-1-yl)acetamide] |
| 500 to 2000 | 5 to 50 | CCc1c(N2CCN(C(=O)c3ncnc(C)c3O)[C@H]3CCC[C@H]32)c(=O)c2nn(-c3ccnc(OC)c3)nc2n1CC(=O)NC12CC(C(C)C)(C1)C2 (relative stereo) [I-93, rel-2-{6-[(4aR,7aS)-4-(5-hydroxy-6-methylpyrimidine-4-carbonyl)-octahydro-1H-cyclopenta[b]pyrazin-1-yl]-5-ethyl-2-(2-methoxypyridin-4-yl)-7-oxo-2H,4H,7H-[1,2,3]triazolo[4,5-b]pyridin-4-yl}-N-[3-(propan-2-yl)bicyclo[1.1.1]pentan-1-yl]acetamide] |
| 2000 to 5000 | 5 to 50 | CCc1c(N2CCN(C(=O)c3ncnc(C)c3O)[C@H]3CC[C@@H]32)c(=O)c2nc(N(C)C)cnc2n1CC(=O)NC1CC2(CCC2)C1 [I-229, 2-(2-(dimethylamino)-6-ethyl-7-((1S,6S)-5-(5-hydroxy-6-methylpyrimidine-4-carbonyl)-2,5-diazabicyclo[4.2.0]octan-2-yl)-8-oxopyrido[2,3-b]pyrazin-5(8H)-yl)-N-(spiro[3.3]heptan-2-yl)acetamide] |
| ≤ 500 | 5 to 50 | CCc1c(N2CCN(C(=O)c3ncnc(C)c3O)[C@H]3CC[C@@H]32)c(=O)c2nn(C3=CCOC(C)C3)nc2n1CC(=O)NC12CC(C3CC3)(C1)C2 (single isomer, unassigned) [I-169] |
| 500 to 2000 | 5 to 50 | CCc1c(N2CCN(C(=O)c3c(O)ccc4ncoc34)CC2)c(=O)n2nc(-c3ccnc(OC)c3)nc2n1CC(=O)NC1CC2(CCC2)C1 [I-206, 2-(5-ethyl-6-(4-(6-hydroxybenzo[d]oxazole-7-carbonyl)piperazin-1-yl)-2-(2-methoxypyridin-4-yl)-7-oxo-[1,2,4]triazolo[1,5-a]pyrimidin-4(7H)-yl)-N-(spiro[3.3]heptan-2-yl)acetamide] |
